The values that follow come from patent publication US20120302573A1, “METHODS OF INHIBITING PRO MATRIX METALLOPROTEINASE ACTIVATION” (priority 2011, published 2012).

As usually defined, the Kd is the equilibrium constant for the complex coming apart. A lower Kd goes with higher affinity.

Each structure is given as a SMILES string. Structures can show the parent of a compound that is named as a salt.

The target of assay [1] is T1, full-length proMMP9(1-707) activation by catalytic MMP3 (Homo sapiens, UniProt P14780, R574P). The assay is described as follows: proMMP9/MMP3 P126 Activation Assay. Type of assay: biochemical. Details: made in house; host or cells: E. coli (MMP3). Conditions: proMMP9 from HEK293 cells.
T1 sequence (P14780 20-707 R574P): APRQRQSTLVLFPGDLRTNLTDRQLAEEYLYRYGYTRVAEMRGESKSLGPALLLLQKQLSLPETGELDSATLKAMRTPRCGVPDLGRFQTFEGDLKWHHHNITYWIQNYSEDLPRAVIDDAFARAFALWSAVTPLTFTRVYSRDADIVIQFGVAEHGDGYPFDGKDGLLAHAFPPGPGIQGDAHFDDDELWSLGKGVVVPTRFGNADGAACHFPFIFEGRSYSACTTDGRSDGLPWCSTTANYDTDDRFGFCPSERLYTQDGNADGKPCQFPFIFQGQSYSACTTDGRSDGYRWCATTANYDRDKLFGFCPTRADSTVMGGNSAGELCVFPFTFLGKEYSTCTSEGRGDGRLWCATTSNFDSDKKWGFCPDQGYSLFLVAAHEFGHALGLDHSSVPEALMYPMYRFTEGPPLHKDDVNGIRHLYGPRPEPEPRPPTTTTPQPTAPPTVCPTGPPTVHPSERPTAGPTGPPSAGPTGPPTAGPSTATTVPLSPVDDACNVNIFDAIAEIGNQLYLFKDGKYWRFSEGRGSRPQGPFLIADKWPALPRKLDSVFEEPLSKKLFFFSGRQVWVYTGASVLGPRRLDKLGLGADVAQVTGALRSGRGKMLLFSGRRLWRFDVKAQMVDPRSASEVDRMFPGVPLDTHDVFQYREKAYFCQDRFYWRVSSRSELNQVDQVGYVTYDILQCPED
Protocol: The assay buffer employed was 50 mM Hepes, pH 7.5, 10 mM CaCl2, 0.05% Brij-35. DMSO was included at a final concentration of 2%, arising from the test compound addition. […] The reaction volume was 50 μL. […] Initial velocities were plotted by use of a four-parameter logistics equation (GraphPad Prism® software) for determination of IC50.
Assay [2] has as its target T2, proMMP9(67-444;ΔFnII) (SEQ ID NO:5) (Homo sapiens, UniProt P14780, DEL216-390).
T2 construct: amino acid pairs including: 29-215/391-444, 67-215/391-444, and 20-215/391-445, respectively; start methionine (N); made in house; host or cells: E. coli BL21(DE3) RIL
T2 sequence (P14780 with tags, fused parts or gaps DEL216-390): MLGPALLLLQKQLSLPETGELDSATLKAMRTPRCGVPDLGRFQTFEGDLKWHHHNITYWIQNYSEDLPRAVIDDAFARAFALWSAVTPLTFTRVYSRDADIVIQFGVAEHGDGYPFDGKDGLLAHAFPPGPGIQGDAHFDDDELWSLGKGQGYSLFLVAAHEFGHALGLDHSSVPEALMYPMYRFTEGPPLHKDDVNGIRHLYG
The assay is described as follows: ThermoFluor binding assay with proMMP9(67-444;ΔFnII). In short, it runs like this: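 Thermal shift (ThermoFluor) with 1,8-ANS dye; protein desalted by buffer exchange before use. Samples heated 40 to 90 °C at 1 °C/min, excitation 380-400 nm, emission 500±25 nm. Binding fitted using unfolding thermodynamic parameters from DSC and ThermoFluor dosing data.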

Assay [3] deals with T3, proMMP13(1-268) (SEQ ID NO:7) (Homo sapiens, UniProt P45452).
T3 construct: 6x-histidine tag (C); made in house; host or cells: HEK293
The assay is described as follows: ThermoFluor binding assay with proMMP13(1-268). As for the experimental part: The ThermoFluor® (TF) assay is a 384-well plate-based binding assay that measures thermal stability of proteins (Biomol Screen 2001, 6, 429-40; Biochemistry 2005, 44, 5258-66). The experiments were carried out using instruments available from Johnson & Johnson Pharmaceutical Research & Development, LLC. TF dye used in all experiments was […] (1,8-ANS) (Invitrogen: A-47).
Compounds were arranged in a pre-dispensed plate (Greiner Bio-one: 781280), wherein compounds were serially diluted in 100% DMSO across 11 columns within a series. Columns 12 and 24 were used as DMSO reference and contained no compound. For multiple compound concentration-response experiments, the compound aliquots ([…]) were robotically predispensed directly into black 384-well polypropylene PCR microplates (Abgene: TF-0384/k) using a Cartesian Hummingbird liquid handler (DigiLab, Holliston, Mass.). Following compound dispense, protein and dye solutions were added to achieve the final assay volume of 3 μL. The assay solutions were overlayed with 1 μL of silicone oil (Fluka, type DC 200: 85411) to prevent evaporation.
Assay plates were robotically loaded onto a thermostatically controlled PCR-type thermal block and then heated from 40 to 90° C. at a ramp-rate of 1° C./min for all experiments. Fluorescence was measured by continuous illumination with UV light (Hamamatsu LC6) supplied via fiber optics and filtered through a band-pass filter (380-400 nm; >6 OD cutoff). Fluorescence emission of the entire 384-well plate was detected by measuring light intensity using a CCD camera (Sensys, Roper Scientific) filtered to detect 500±25 nm, resulting in simultaneous and independent readings of all 384 wells. A single image with 20-sec exposure time was collected at each temperature, and the sum of the pixel intensity in a given area of the assay plate was recorded vs temperature and fit to standard equations to yield the Tm (J Biomol Screen 2001, 6, 429-40).
Thermodynamic parameters necessary for fitting compound binding for each proMMP were estimated by differential scanning calorimetry (DSC) and from ThermoFluor® data. The heat capacity of unfolding for each protein was estimated from the molecular weight and from ThermoFluor® dosing data.
The proMMP13(1-268) (SEQ ID NO:7) protein sample preparations included a desalting buffer exchange step via a PD-10 gravity column (GE Healthcare). The desalting buffer exchange was performed prior to diluting the protein to the final assay concentration of 3.5 μM. The concentration of proMMP13(1-268) (SEQ ID NO:7) was estimated spectrophotometrically based on a calculated extinction coefficient of ε280=37000 M^−1 cm^−1, a calculated molecular weight of 30.8 kDa, and calculated pI of 5.33. ThermoFluor® reference conditions were defined as follows: 100 μg/mL proMMP13(1-268) (SEQ ID NO:7), 25 μM 1,8-ANS, pH 7.0 Buffer (50 mM HEPES pH 7.0, 100 mM NaCl, 0.001% Tween-20, 2.5 mM MgCl2, 300 μM CaCl2). The thermodynamic parameters for proMMP13(1-268) (SEQ ID NO:7) are as follows: Tm (° C.)=67 (+/−0.1), ΔUH(Tm) (cal mol^−1)=107000(+/−5000), ΔUS(Tm) (cal mol^−1 K^−1)=318, ΔUCp (cal mol^−1 K^−1)=2600.

For assay [4], the target named is T4, proMMP9(20-445;ΔFnII) (SEQ ID NO:6) (Homo sapiens, UniProt P14780, DEL216-390).
T4 construct: amino acid pairs including: 29-215/391-444, 67-215/391-444, and 20-215/391-445, respectively; start methionine (N); made in house; host or cells: E. coli BL21(DE3) RIL
T4 sequence (P14780 with tags, fused parts or gaps DEL216-390): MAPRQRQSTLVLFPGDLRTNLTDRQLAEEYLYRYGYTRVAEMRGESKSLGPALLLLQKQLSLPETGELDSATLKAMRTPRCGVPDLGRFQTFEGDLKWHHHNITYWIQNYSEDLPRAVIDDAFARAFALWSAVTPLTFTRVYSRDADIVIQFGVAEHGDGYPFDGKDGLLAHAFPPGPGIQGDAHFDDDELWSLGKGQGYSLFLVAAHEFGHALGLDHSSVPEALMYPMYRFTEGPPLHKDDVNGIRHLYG
The assay is described as follows: ThermoFluor binding assay with proMMP9(20-445;ΔFnII). In a few lines: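 Thermal shift with 1,8-ANS dye, heating from 40 to 90 °C at 1 °C/min. Fluorescence excited at 380–400 nm and read at 500±25 nm. Protein was buffer-exchanged by desalting, and binding fitted using heat capacity and thermodynamic parameters from DSC and ThermoFluor dosing data, with DMSO reference wells.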
A general note: In DSF a fluorescence change marks the thermal transition of the protein.

The target of assay [5] is T1, full-length proMMP9(1-707) activation by catalytic MMP3. The assay is described as follows: ProMMP9/MMP3 DQ Gelatin Activation Assay.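 Also: readout is fluorescence of quenched fluorescein gelatin cut by activated MMP9, 30 min activation at 37 °C, inhibition relative to DMSO-only controls with EDTA as blank.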 Details: made in house; host or cells: COS-1 (proMMP9); E. coli (MMP3). To be noted: proMMP9 from COS-1 cells; read-out: ProMMP9/MMP3 DQ gel, IC50. It counts as biochemical.
Protocol: Compounds were assessed for inhibition of proMMP9 activation by catalytic MMP3 using a quenched fluorescein gelatin substrate (DQ gelatin, Invitrogen D12054) that fluoresces upon cleavage by activated MMP9. The assay buffer employed was 50 mM Hepes, pH 7.5, 10 mM CaCl2, 0.05% Brij-35. DMSO was included at a final concentration of 0.2%, arising from the test compound addition. […] Test compounds in DMSO were diluted 250-fold in assay buffer at 4× the final concentration. The reaction volume was 12 μL, and all reactions were conducted in triplicate. […] The plate was sealed and incubated for 30 min at 37° C. […] Immediately following the 30 min incubation, 4 μL of 40 μg/ml DQ gelatin substrate was added (freshly diluted in assay buffer), and incubated for 10 min at room temperature. […] Reactivity of residual MMP3 towards DQ gelatin was minimal under these conditions. Percent inhibition of test compounds were determined from suitable positive (DMSO only in assay buffer) and negative (EDTA added prior to reaction initiation) controls. Plots of % inhibition vs. test compound concentration were fit to a four-parameter logistics equation (GraphPad Prism® software) for determination of IC50.
Assay [6] has as its target T5, human catalytic MMP3, MMP3(100-265) (Homo sapiens, UniProt P08254).
T5 construct: Catalytic MMP3 was amino acids 100-265 of human MMP3 from UniProtKB/Swiss-Prot P08254; 6x-Histidine tag (C); made in house; host or cells: E. coli
The assay is described as follows: Catalytic MMP3 enzyme assay (fluorogenic peptide M2110). Type of assay: biochemical. As for the experimental part: Compounds were assessed for inhibition of human catalytic MMP3, MMP3(100-265) (SEQ ID NO:8), using a peptide (Mca-RPKPVE-Nva-WRK(Dnp)-NH2, Bachem M2110) that fluoresces upon cleavage by catalytic MMP3. […] The reaction volume was 100 μL. […] Final concentrations employed were 20 nM catalytic MMP3 and 20 μM M2110 substrate.

T5 sequence (P08254 with tags, fused parts or gaps): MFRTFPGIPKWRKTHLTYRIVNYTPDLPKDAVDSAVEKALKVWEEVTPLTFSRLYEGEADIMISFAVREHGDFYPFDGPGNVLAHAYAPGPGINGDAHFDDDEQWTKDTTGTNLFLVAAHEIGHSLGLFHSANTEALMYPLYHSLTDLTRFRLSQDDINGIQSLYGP

As for `CC(=O)Nc1nc(C)c(-c2csc(Nc3ccccc3OC(C)C)n2)s1` [Example 1, N-[2-(2-Isopropoxy-phenylamino)-4′-methyl-[4,5′]bithiazolyl-2′-yl]-acetamide], the IC50 in assay [1] amounted to 2.5 µM. The Kd amounted to 1.29 µM in assay [2], 14.1 µM in assay [3] and 8.68 µM in assay [4].

The compound `Cc1nc(C)c(-c2csc(Nc3ccccc3OC(C)C)n2)s1` [Example 2, (2′,4′-Dimethyl-[4,5′]bithiazolyl-2-yl)-(2-isopropoxy-phenyl)-amine] registered an IC50 in assay [1] of 2.5 µM. Besides, the figures for the Kd in assay [2], in assay [3] and in assay [4] were 55.3 µM, 42.5 µM and over 95 µM, respectively.

The compound `COc1ccc(F)cc1Nc1nc(-c2sc(C)nc2C)cs1` [Example 5, (2′,4′-Dimethyl-[4,5′]bithiazolyl-2-yl)-(5-fluoro-2-methoxy-phenyl)-amine.HBr] displayed an IC50 in assay [1] of 0.71 µM. Besides, the figures for the Kd in assay [2], in assay [3] and in assay [4] were 5.49 µM, 20 µM and over 95 µM, respectively.

With `COc1ccc(F)cc1Nc1nc(-c2sc(NC(C)=O)nc2C)cs1` [Example 6], the IC50 in assay [1] turned out to be 0.65 µM. In addition, the figures for the Kd in assay [2], in assay [3] and in assay [4] were 0.156 µM, 15.1 µM and 0.907 µM, respectively.

On to `CC(=O)Nc1nc(C)c(-c2csc(Nc3cc(F)ccc3OC(C)C)n2)s1` [Example 12, N-[2-(5-Fluoro-2-isopropoxy-phenylamino)-4′-methyl-[4,5′]bithiazolyl-2′-yl]-acetamide], for which the IC50 in assay [1] worked out at 3.6 µM. For the same compound, the Kd in assay [2] is 2.92 µM; in assay [3] it was 12 µM; in assay [4], 13.8 µM.

`Cc1nc(C)c(-c2csc(Nc3cc(F)ccc3OC(C)C)n2)s1` [Example 13, (2′,4′-Dimethyl-[4,5′]bithiazolyl-2-yl)-(5-fluoro-2-isopropoxy-phenyl)-amine] yielded an IC50 in assay [1] of about 2 µM. Moreover, the Kd in assay [2], in assay [3] and in assay [4] was over 95 µM throughout.

Compound `Cc1nc(C)c(-c2csc(Nc3ccccc3OC(F)(F)F)n2)s1` [Example 14, (2′,4′-Dimethyl-[4,5′]bithiazolyl-2-yl)-(2-trifluoromethoxy-phenyl)-amine] returned an IC50 in assay [1] of 3.6 µM. The Kd in assay [3] is 9.12 µM; in assay [4], over 95 µM.

In the case of `COc1ccc(F)cc1Nc1nc(-c2cccnc2)cs1` [Example 16, (5-Fluoro-2-methoxy-phenyl)-(4-pyridin-3-yl-thiazol-2-yl)-amine.HBr], in assay [1], the IC50 is 3.6 µM. Besides, the Kd in assay [2] is 8.9 µM; in assay [3], over 95 µM; in assay [4], over 95 µM.

In assay [1], `COc1ccc(Br)cc1Nc1nc(-c2sc(NC(C)=O)nc2C)cs1` [Example 21, N-[2-(5-Bromo-2-methoxy-phenylamino)-4′-methyl-[4,5′]bithiazolyl-2′-yl]-acetamide.HBr] yielded an IC50 of 2.8 µM. Further, the Kd was 0.14 µM in assay [2], 3.57 µM in assay [3] and 4.48 µM in assay [4].

As to `COc1ccccc1Nc1nc(-c2sc(NS(C)(=O)=O)nc2C)cs1` [Example 34, N-[2-(2-Methoxy-phenylamino)-4′-methyl-[4,5′]bithiazolyl-2′-yl]-methanesulfonamide], the IC50 in assay [1] turned out to be 4 µM; in assay [5], 2.3 µM. In addition, the Kd in assay [2] turned out to be 0.82 µM; in assay [3] it was 43.5 µM; in assay [4] it was 3.64 µM.

In turn, `COc1ccc(F)cc1Nc1nc(-c2c(C)nc(C)n2C)cs1` [Example 42, (5-Fluoro-2-methoxy-phenyl)-[4-(2,3,5-trimethyl-3H-imidazol-4-yl)-thiazol-2-yl]-amine] came in with an IC50 in assay [1] of 5 µM. The Kd is 5.35 µM in assay [3] and 28.8 µM in assay [4].

For the compound `COc1ccccc1Nc1nc(-c2sc(C)cc2C)cs1` [Example 45, [4-(3,5-Dimethyl-thiophen-2-yl)-thiazol-2-yl]-(2-methoxy-phenyl)-amine.TFA], the IC50 was over 50 µM in assay [1] and over 20 µM in assay [5]. The values for the Kd in assay [2], in assay [3] and in assay [4] were 10 µM, over 95 µM and 1.65 µM, respectively.

In turn, `COc1ccccc1Nc1nc(-c2sc(NC(C)=O)nc2C)cs1` [Example 65, N-[2-(2-Methoxy-phenylamino)-4′-methyl-[4,5′]bithiazolyl-2′-yl]-acetamide] displayed an IC50 in assay [6] of over 50 µM. Moreover, the Kd in assay [3] turned out to be 37.5 µM.

`COc1ccccc1Nc1nc(-c2sc(N)nc2C)cs1` [Example 68, N^2-(2-Methoxy-phenyl)-4′-methyl-[4,5′]bithiazolyl-2,2′-diamine]: the IC50 came out at 2.5 µM in assay [1] and 3.1 µM in assay [5]. Also, the Kd in assay [2] stood at 1.12 µM; in assay [3] it was 14.5 µM; in assay [4] it was 3.76 µM.

As to `Brc1ccc(Nc2nc(-c3cccnc3)cs2)cn1` [Example 70, (6-Bromo-pyridin-3-yl)-(4-pyridin-3-yl-thiazol-2-yl)-amine], in assay [1], the IC50 is over 20 µM. Besides, the Kd in assay [2] is 12 µM; in assay [3] it was 0.668 µM; in assay [4], 5.79 µM.
